From article PMC12668308, “A Novel Antimalarial Agent that Inhibits Protein Synthesis in Plasmodium falciparum” (Angewandte Chemie (International Ed. in English), 2025) come the findings set out here.

One may read the IC50 as the concentration at which inhibition is half-maximal.

The first experiment has as its system P. falciparum NF54 strain. As to the kind of experiment: [3H]-hypoxanthine incorporation assay, asexual blood stage. The experiment is classed as cell-based, Plasmodium falciparum. Conditions: PfNF54 IC50. The procedure:
P. falciparum asexual blood stage parasites were cultured in human red blood cells (RBC, Blutspende SRK, Zurich) at a hematocrit of 5% in RPMI 1640 medium. The RPMI 1640 medium (ThermoFisher Scientific #51800−043) was supplemented with the following: 24 mM NaHCO3 (pH 7.3, Sigma-Aldrich #31437−500G-R), 25 mM Hepes (Sigma-Aldrich #H4034−500G), 0.36 mM hypoxanthine (Sigma-Aldrich # H9377−25G), 100 µg mL^-1 neomycin (Sigma-Aldrich #N6386−100G) and 0.5% Albumax II (Thermo Fisher #11021−045). Additionally, 2 mM choline chloride (279 mg/L, Sigma-Aldrich #C7527−100G) was added to the culture to block the induction of sexual commitment as described. ^[31^] The RPMI 1640 medium and components were dissolved in water (Milli-Q purified), stirred for at least 3 h, and then sterile filtered (0.22 μm pore size) with a bottle top filter (Corning # 431118). Parasite cultures were maintained in an atmosphere of 3% O2, 4% CO2, and 93% N2 in air-tight chambers at 37 °C. The [^3H]-hypoxanthine incorporation assay was used to test compound activity in the specific parasite lines as described.^[32^] Briefly, compounds were dissolved in DMSO (10 mM) and diluted in a hypoxanthine-free culture medium. A limiting dilution was performed over a 64-fold range (6-step twofold dilution) in a 96-well plate in duplicates. For every starting concentration, a limiting dilution was performed over a 64-fold range (6-step twofold dilution) in a 96-well plate in two biological duplicates. Parasites were added at 100 µL to each well containing the compound to obtain a final parasitemia of 0.3% and haematocrit of 1.25%. The plates were incubated for 48 h before 0.25 µCi of [^3H]-hypoxanthine was added per well for an additional 24 h. Parasites were harvested on a glass-fiber filter with a Microbeta FilterMate cell harvester (Perkin Elmer, Waltham, USA) and radioactivity was counted using a MicroBeta2 liquid scintillation counter (Perkin Elmer, Waltham, US). […] The fifty percent inhibitory concentration (IC50) was calculated by using nonlinear, four parameter (variable slope) curve fitting as described ^[33^] after importing into GraphPad Prism (version 8.3.0).
For the compound `O=C(Nc1cc(S(=O)(=O)N2CCCC2)ccc1O)c1cccc(Oc2cc(C(F)(F)F)ccn2)c1` [Compound 23, N-(2-Hydroxy-5-(pyrrolidin-1-ylsulfonyl)phenyl)-3-((4-(trifluoromethyl)pyridin-2-yl)oxy)benzamide], the “fold increased activity compared to the initial hit molecule 1” value is “about 8 fold”.

The same experiment, now with this note: Plasmodium falciparum, NF54, asexual blood stage; mean ± s.d.; read-out: PfNF54 IC50 ± s.d.
Regarding `COc1ccc(S(=O)(=O)N2CCCC2)cc1NC(=O)c1cccc(Oc2ccccc2)c1` [Compound 2, N-(2-Methoxy-5-(pyrrolidin-1-ylsulfonyl)phenyl)-3-phenoxybenzamide], the half-inhibitory concentration (IC50) was > 10000 nM.

With `COc1ccc(S(=O)(=O)N2CCCC2)cc1N(C)C(=O)c1cccc(Oc2ccccc2)c1` [Compound 3, N-(2-methoxy-5-(pyrrolidin-1-ylsulfonyl)phenyl)-N-methyl-3-phenoxybenzamide], the 50% inhibitory concentration (IC50) was > 10000 nM.

Regarding `CN(C(=O)c1cccc(Oc2ccccc2)c1)c1cc(S(=O)(=O)N2CCCC2)ccc1O` [Compound 4, N-(2-Hydroxy-5-(pyrrolidin-1-ylsulfonyl)phenyl)-N-methyl-3-phenoxybenzamide], the concentration for half-maximal inhibition (IC50) was > 10000 nM.

For the compound `O=C(Nc1cccc(S(=O)(=O)N2CCCC2)c1)c1cccc(Oc2ccccc2)c1` [Compound 5, 3-Phenoxy-N-(3-(pyrrolidin-1-ylsulfonyl)phenyl)benzamide], the IC50 was 4930 ± 97.8 nM.

With `NS(=O)(=O)c1ccc(O)c(NC(=O)c2cccc(Oc3ccccc3)c2)c1` [Compound 6, N-(2-Hydroxy-5-sulfamoylphenyl)-3-phenoxybenzamide], the half-inhibitory concentration (IC50) was determined as 777 ± 86 nM.

For the compound `CCS(=O)(=O)c1ccc(O)c(NC(=O)c2cccc(Oc3ccccc3)c2)c1` [Compound 7, N-(5-(Ethylsulfonyl)-2-hydroxyphenyl)-3-phenoxybenzamide], the IC50 was 217 ± 42.4 nM.

For the compound `CCCCNS(=O)(=O)c1ccc(O)c(NC(=O)c2cccc(Oc3ccccc3)c2)c1` [Compound 8, N-(5-(N-Butylsulfamoyl)-2-hydroxyphenyl)-3-phenoxybenzamide], the half-maximal inhibitory concentration (IC50) worked out at 1910 ± 254 nM.

Take `O=C(Nc1cc(S(=O)(=O)N2CCCCC2)ccc1O)c1cccc(Oc2ccccc2)c1` [Compound 9, N-(2-Hydroxy-5-(piperidin-1-ylsulfonyl)phenyl)-3-phenoxybenzamide]: the half-inhibitory concentration (IC50) is 574 ± 66.5 nM.

For the compound `CC1(C)CCN(S(=O)(=O)c2ccc(O)c(NC(=O)c3cccc(Oc4ccccc4)c3)c2)C1` [Compound 10, N-(5-((3,3-diMethylpyrrolidin-1-yl)sulfonyl)-2-hydroxyphenyl)-3-phenoxybenzamide], the IC50 was determined as 1410 ± 147 nM.

Regarding `CC1CCN(S(=O)(=O)c2ccc(O)c(NC(=O)c3cccc(Oc4ccccc4)c3)c2)CC1` [Compound 11, N-(2-Hydroxy-5-((4-methylpiperidin-1-yl)sulfonyl)phenyl)-3-phenoxybenzamide], the IC50 is 1030 ± 116 nM.

In the case of `O=C(Nc1cc(S(=O)(=O)N2CCOCC2)ccc1O)c1cccc(Oc2ccccc2)c1` [Compound 12, N-(2-Hydroxy-5-(morpholinosulfonyl)phenyl)-3-phenoxybenzamide], the IC50 is 197 ± 28 nM.

For `O=C(Nc1cc(S(=O)(=O)NCC2CCCCC2)ccc1O)c1cccc(Oc2ccccc2)c1` [Compound 13, N-(5-(N-(Cyclohexylmethyl)sulfamoyl)-2-hydroxyphenyl)-3-phenoxybenzamide], the IC50 is > 10000 nM.

Regarding `O=C(Nc1cc(S(=O)(=O)NCc2ccccc2)ccc1O)c1cccc(Oc2ccccc2)c1` [Compound 14, N-(5-(N-Benzylsulfamoyl)-2-hydroxyphenyl)-3-phenoxybenzamide], the IC50 was determined as 2780 ± 389 nM.

For `O=C(Nc1cc(S(=O)(=O)N2CCCC2)ccc1O)c1ccc(Oc2ccccc2)cc1` [Compound 15, N-(2-Hydroxy-5-(pyrrolidin-1-ylsulfonyl)phenyl)-4-phenoxybenzamide], the concentration for half-maximal inhibition (IC50) was 539 ± 92.2 nM.

Take `O=C(Nc1cc(S(=O)(=O)N2CCCC2)ccc1O)c1cccc(Oc2cccc(F)c2)c1` [Compound 16, 3-(3-Fluorophenoxy)-N-(2-hydroxy-5-(pyrrolidin-1-ylsulfonyl)phenyl)benzamide]: the IC50 was found to be 361 ± 83 nM.

With `O=C(Nc1cc(S(=O)(=O)N2CCCC2)ccc1O)c1cccc(Oc2ccc(Cl)c(C(F)(F)F)c2)c1` [Compound 17, 3-(4-Chloro-3-(trifluoromethyl)phenoxy)-N-(2-hydroxy-5-(pyrrolidin-1-ylsulfonyl)phenyl)benzamide], the half-inhibitory concentration (IC50) worked out at 2315 ± 8.5 nM.

In the case of `Cc1ccc(C(C)C)cc1Oc1cccc(C(=O)Nc2cc(S(=O)(=O)N3CCCC3)ccc2O)c1` [Compound 18, N-(2-hydroxy-5-(pyrrolidin-1-ylsulfonyl)phenyl)-3-(5-isopropyl-2-methylphenoxy)benzamide], the IC50 came out at 1500 ± 81.2 nM.

For the compound `O=C(Nc1cc(S(=O)(=O)N2CCCC2)ccc1O)c1cccc(Oc2ccccn2)c1` [Compound 19, N-(2-Hydroxy-5-(pyrrolidin-1-ylsulfonyl)phenyl)-3-(pyridin-2-yloxy)benzamide], the IC50 was 1450 ± 80 nM.

As to `O=C(Nc1cc(S(=O)(=O)N2CCCC2)ccc1O)c1cccc(Oc2cccc(Cl)n2)c1` [Compound 20, 3-((6-Chloropyridin-2-yl)oxy)-N-(2-hydroxy-5-(pyrrolidin-1-ylsulfonyl)phenyl)benzamide], the IC50 amounted to 746 ± 21.3 nM.

As for `O=C(Nc1cc(S(=O)(=O)N2CCCC2)ccc1O)c1cccc(Oc2cccc(C(F)(F)F)n2)c1` [Compound 21, N-(2-Hydroxy-5-(pyrrolidin-1-ylsulfonyl)phenyl)-3-((6-(trifluoromethyl)pyridin-2-yl)oxy)benzamide], the 50% inhibitory concentration (IC50) is > 10000 nM.

`Cc1cc(C(F)(F)F)cc(Oc2cccc(C(=O)Nc3cc(S(=O)(=O)N4CCCC4)ccc3O)c2)n1` [Compound 22, N-(2-hydroxy-5-(pyrrolidin-1-ylsulfonyl)phenyl)-3-((6-methyl-4-(trifluoromethyl)pyridin-2-yl)oxy)benzamide]: the IC50 turned out to be 216 ± 32.3 nM.

`O=C(Nc1cc(S(=O)(=O)N2CCCC2)ccc1O)c1cccc(Oc2cc(C(F)(F)F)ccn2)c1` [Compound 23, N-(2-Hydroxy-5-(pyrrolidin-1-ylsulfonyl)phenyl)-3-((4-(trifluoromethyl)pyridin-2-yl)oxy)benzamide]: the 50% inhibitory concentration (IC50) came to 69 nM.

For the compound `CC(C)c1ccc(O)c(NC(=O)c2cccc(Oc3cc(C(F)(F)F)ccn3)c2)c1` [Compound 25, N-(2-Hydroxy-5-isopropylphenyl)-3-((4-(trifluoromethyl)pyridin-2-yl)oxy)benzamide], the IC50 stood at 34 ± 4 nM.

Take `O=C(Nc1cc(-n2cnnc2)ccc1O)c1cccc(Oc2cc(C(F)(F)F)ccn2)c1` [Compound 26, N-(2-Hydroxy-5-(4H-1,2,4-triazol-4-yl)phenyl)-3-((4-(trifluoromethyl)pyridin-2-yl)oxy)benzamide]: the half-maximal inhibitory concentration (IC50) came out at 158 ± 15.6 nM.

Regarding `CCN(CC)CCCNCc1ccc(O)c(NC(=O)c2cccc(Oc3cc(C(F)(F)F)ccn3)c2)c1` [Compound 28, N-(5-(((3-(diEthylamino)propyl)amino)methyl)-2-hydroxyphenyl)-3-((4-(trifluoromethyl)pyridin-2-yl)oxy)benzamide], the IC50 was found to be 41 ± 17.2 nM.

In the case of `CN(Cc1ccc(O)c(NC(=O)c2cccc(Oc3cc(C(F)(F)F)ccn3)c2)c1)C1CCCCC1` [Compound 29, N-(5-((Cyclohexyl(methyl)amino)methyl)-2-hydroxyphenyl)-3-((4-(trifluoromethyl)pyridin-2-yl)oxy)benzamide], the 50% inhibitory concentration (IC50) was 7.6 ± 1.8 nM.

As to `O=C(Nc1cc(CN2CCOCC2)ccn1)c1cccc(Oc2cc(C(F)(F)F)ccn2)c1` [Compound 35, N-(4-(Morpholinomethyl)pyridin-2-yl)-3-((4-(trifluoromethyl)pyridin-2-yl)oxy)benzamide], the IC50 was > 10000 nM.

Take `Oc1ccc(CN2CCOCC2)cc1NCc1cccc(Oc2cc(C(F)(F)F)ccn2)c1` [Compound 36, 4-(Morpholinomethyl)-2-((3-((4-(trifluoromethyl)pyridin-2-yl)oxy)benzyl)amino)phenol]: the 50% inhibitory concentration (IC50) is 808 ± 172 nM.

As for `Oc1ccc(CN2CCOCC2)cc1-n1cc(-c2cccc(Oc3cc(C(F)(F)F)ccn3)c2)nn1` [Compound 37, 4-(Morpholinomethyl)-2-(4-(3-((4-(trifluoromethyl)pyridin-2-yl)oxy)phenyl)-1H-1,2,3-triazol-1-yl)phenol], the IC50 stood at 21 ± 1.13 nM.
